Patent US20120009280A1, “METHOD OF REDUCING THE RATE OF DEGRADATION OF A BIOLOGICAL MATERIAL” (Bio-Energy Ingredients Limited, priority 2009, published 2012)

What was measured:
[1] = system: yeast; assay: Yeast count of spent brewer's / wet distiller's grains stored at ambient temperature; assay type: cell-based
Description: Samples of Portion 1 (“AR”), Portion 3 (“SO”) and Portion 5 (“SH”) were then delivered to a microbiological testing facility about 15 kilometres from the treatment laboratory. Each was tested for initial total microbial, yeast and mould counts, respectively.
Separate untreated samples were similarly stored under insect-proof screens at ambient temperature for seven days (as shown in Tables 1 and 2). During the trial period the ambient temperature ranged from 11 to 33 degrees C.
(§1) The free moisture content on the initial spent brewer's grains was determined to be 78.1% m/m. After exposure to the environment for seven days, all of the samples were tested at a South African National Accreditation System (SANAS) approved microbiological testing facility. Each was tested for total micro-organism, yeast and mould counts to determine the affect of the various treatments. A similar procedure to that described in K. A. Rosentrater et al, Food Bioprocess Technol (2008) was used for the microbiological evaluation.
At the laboratory, the samples were thoroughly mixed and initially split into a first portion (Portion 1) and a second portion (Portion 2). Portion 1 was left untreated. A sample of Portion 1, was delivered immediately to a microbiological testing facility about 15 kilometres away from the treatment laboratory and was tested for initial total microbial, yeast and mould counts, respectively. No water removal prior to treatment was done in this experiment as was the case in Example 8 wherein a similar wet material was partially dewatered by pressing and the residue treated with 10% (w/w/) calcium oxide.
Samples from Portion 2 were subjected to treatment with varying amounts of a powdered, commercially-available calcium oxide containing approximately 94% calcium oxide (CaO) as shown in Table 32. The treatments varied from 2.5 to 10% (w/w) calcium oxide addition. The samples were stored in batches (according to the calcium oxide treatment) under insect-proof screens at ambient temperature for fifty six days. Separate untreated samples were similarly stored under insect-proof screens at ambient temperature for a total of 56 days. During the trial period the ambient temperature ranged from 10 to 30 degrees C. As this period was the southern hemisphere spring/early summer, the humidity as well as ambient temperatures varied widely.
as §1, with “79.4%” for “78.1%”
Samples from each treatment were drawn every seven days. No further calcium oxide treatment or agitation took place after the initial mix. In each case the entire sample was isolated and delivered to the microbiological testing facility.
The calcium oxide treatment trial described in Example 9 wherein wet distiller's grains were treated with 2.5%, 5% and 10.0% calcium oxide, respectively, versus untreated material was repeated using lower doses of calcium oxide. In this trial the same source of wet distiller's grains (again with now partial water removal prior to treatment) was treated. Also, the same protocol as described in Example 9 was applied, but at lower doses of calcium oxide i.e. 0.5%, 1.0%, 1.5%, 2.0% and 2.5%, respectively, versus untreated material.
In this trial the same source of wet distiller's grains (again with now partial water removal prior to treatment) was treated. Also, the same protocol as described in Example 9 was applied.

[2] = system: mould; assay: Mould count of spent brewer's / wet distiller's grains stored at ambient temperature; assay type: cell-based
Method in brief: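 Wet grain samples were mixed with a powdered treatment agent in a single initial mix, with no later treatment or agitation. Batches and untreated controls were kept under insect-proof screens at ambient temperature. Every seven days, a whole sample from each treatment went to a SANAS-approved microbiological laboratory. Mould counts were determined there following a procedure similar to Rosentrater et al. (2008).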

[3] = pH of suspensions of grain samples in distilled water or PBS; conditions: 1% (w/w) in distilled water
Description: The untreated sample (A) was compared visually against the corresponding quicklime-treated sample (B).
On Day 7, 10 g amounts of each sample were suspended in either 90 ml PBS or 90 ml sterile distilled water and shaken for 10 minutes. The pH of each suspension was then measured and compared.
On Day 9, 10 g of each sample was suspended in 90 ml PBS and shaken for 10 minutes. The pH was measured.

Q: With `[Ca+2].[OH-].[OH-]` [(CaOH)2 powder] as the compound, how does the “Yeast Count” value ([1]; dose 3.3% (w/w), week 8) read?
A: <10 cfu/gram

Q: What about the “Yeast Count” value ([1]; dose 6.6% (w/w), week 2) of the same compound?
A: <10 cfu/gram

Q: And the “Mould Count” value ([2]; dose 3.3% (w/w), week 0)?
A: <10 cfu/gram

Q: And the “Mould Count” value ([2]; dose 3.3% (w/w), week 1)?
A: <10 cfu/gram

Q: And the “Mould Count” value ([2]; dose 3.3% (w/w), week 2)?
A: <10 cfu/gram

Q: What about the “Mould Count” value ([2]; dose 3.3% (w/w), week 3) of the same compound?
A: <10 cfu/gram

Q: What about the “Mould Count” value ([2]; dose 3.3% (w/w), week 4) of the same compound?
A: <10 cfu/gram

Q: And the “Mould Count” value ([2]; dose 3.3% (w/w), week 5)?
A: <10 cfu/gram

Q: And the “Mould Count” value ([2]; dose 3.3% (w/w), week 6)?
A: <10 cfu/gram

Q: What about the “Mould Count” value ([2]; dose 3.3% (w/w), week 7) of the same compound?
A: <10 cfu/gram

Q: And the “Mould Count” value ([2]; dose 3.3% (w/w), week 8)?
A: <10 cfu/gram

Q: And the “Mould Count” value ([2]; dose 6.6% (w/w), week 0)?
A: <10 cfu/gram

Q: And the “Mould Count” value ([2]; dose 6.6% (w/w), week 1)?
A: <10 cfu/gram

Q: What about the “Mould Count” value ([2]; dose 6.6% (w/w), week 2) of the same compound?
A: <10 cfu/gram

Q: And the “Mould Count” value ([2]; dose 6.6% (w/w), week 3)?
A: <10 cfu/gram

Q: What about the “Mould Count” value ([2]; dose 6.6% (w/w), week 4) of the same compound?
A: <10 cfu/gram

Q: What about the “Mould Count” value ([2]; dose 6.6% (w/w), week 5) of the same compound?
A: <10 cfu/gram

Q: And the “Mould Count” value ([2]; dose 6.6% (w/w), week 6)?
A: <10 cfu/gram

Q: What about the “Mould Count” value ([2]; dose 6.6% (w/w), week 7) of the same compound?
A: <10 cfu/gram

Q: What about the “Mould Count” value ([2]; dose 6.6% (w/w), week 8) of the same compound?
A: <10 cfu/gram

Q: And the “Mould Count” value ([2]; dose 6.6% (w/w), week 9)?
A: 10 cfu/gram

Q: What about the pH ([3]; dose 3.3% (w/w), week 0) of the same compound?
A: 11.78

Q: What about the pH ([3]; dose 3.3% (w/w), week 1) of the same compound?
A: 11.57

Q: And the pH ([3]; dose 3.3% (w/w), week 2)?
A: 8.69

Q: And the pH ([3]; dose 3.3% (w/w), week 3)?
A: 9.08

Q: And the pH ([3]; dose 3.3% (w/w), week 4)?
A: 8.45

Q: And the pH ([3]; dose 3.3% (w/w), week 5)?
A: 7.66

Q: What about the pH ([3]; dose 3.3% (w/w), week 6) of the same compound?
A: 9.32

Q: What about the pH ([3]; dose 3.3% (w/w), week 7) of the same compound?
A: 7.25

Q: And the pH ([3]; dose 3.3% (w/w), week 8)?
A: 9.29

Q: What about the pH ([3]; dose 6.6% (w/w), week 0) of the same compound?
A: 12.90

Q: And the pH ([3]; dose 6.6% (w/w), week 1)?
A: 12.30

Q: And the pH ([3]; dose 6.6% (w/w), week 2)?
A: 11.08

Q: And the pH ([3]; dose 6.6% (w/w), week 3)?
A: 11.78

Q: What about the pH ([3]; dose 6.6% (w/w), week 4) of the same compound?
A: 9.51

Q: What about the pH ([3]; dose 6.6% (w/w), week 5) of the same compound?
A: 7.68

Q: And the pH ([3]; dose 6.6% (w/w), week 6)?
A: 10.61

Q: And the pH ([3]; dose 6.6% (w/w), week 7)?
A: 7.25

Q: What about the pH ([3]; dose 6.6% (w/w), week 8) of the same compound?
A: 9.13

Q: And the pH ([3]; dose 6.6% (w/w), week 9)?
A: 8.84

Q: With `[Ca+2].[O-]CC(O)CO.[O-]CC(O)CO` [Ca-DGO granules] as the compound, how does the “Yeast Count” value ([1]; dose 10% (w/w), week 3) read?
A: <10 cfu/gram

Q: What about the “Yeast Count” value ([1]; dose 10% (w/w), week 4) of the same compound?
A: <10 cfu/gram

Q: And the “Yeast Count” value ([1]; dose 10% (w/w), week 5)?
A: 100 cfu/gram

Q: And the “Yeast Count” value ([1]; dose 10% (w/w), week 6)?
A: <10 cfu/gram

Q: And the “Yeast Count” value ([1]; dose 10% (w/w), week 9)?
A: <10 cfu/gram

Q: And the “Mould Count” value ([2]; dose 10% (w/w), week 0)?
A: <10 cfu/gram

Q: What about the “Mould Count” value ([2]; dose 10% (w/w), week 1) of the same compound?
A: <10 cfu/gram

Q: And the “Mould Count” value ([2]; dose 10% (w/w), week 2)?
A: <10 cfu/gram

Q: What about the “Mould Count” value ([2]; dose 10% (w/w), week 3) of the same compound?
A: <10 cfu/gram

Q: What about the “Mould Count” value ([2]; dose 10% (w/w), week 4) of the same compound?
A: <10 cfu/gram

Q: What about the “Mould Count” value ([2]; dose 10% (w/w), week 5) of the same compound?
A: <10 cfu/gram

Q: What about the “Mould Count” value ([2]; dose 10% (w/w), week 6) of the same compound?
A: <10 cfu/gram

Q: What about the “Mould Count” value ([2]; dose 10% (w/w), week 7) of the same compound?
A: 400 cfu/gram

Q: And the “Mould Count” value ([2]; dose 10% (w/w), week 8)?
A: 250 cfu/gram

Q: And the “Mould Count” value ([2]; dose 10% (w/w), week 9)?
A: <10 cfu/gram

Q: What about the “Mould Count” value ([2]; dose 15% (w/w), week 0) of the same compound?
A: <10 cfu/gram

Q: And the “Mould Count” value ([2]; dose 15% (w/w), week 1)?
A: <10 cfu/gram

Q: And the “Mould Count” value ([2]; dose 15% (w/w), week 2)?
A: <10 cfu/gram

Q: And the “Mould Count” value ([2]; dose 15% (w/w), week 3)?
A: <10 cfu/gram

Q: What about the “Mould Count” value ([2]; dose 15% (w/w), week 4) of the same compound?
A: <10 cfu/gram

Q: And the “Mould Count” value ([2]; dose 15% (w/w), week 5)?
A: <10 cfu/gram

Q: And the “Mould Count” value ([2]; dose 15% (w/w), week 6)?
A: <10 cfu/gram

Q: What about the “Mould Count” value ([2]; dose 15% (w/w), week 7) of the same compound?
A: <10 cfu/gram

Q: And the “Mould Count” value ([2]; dose 15% (w/w), week 8)?
A: <10 cfu/gram

Q: What about the “Mould Count” value ([2]; dose 15% (w/w), week 9) of the same compound?
A: <10 cfu/gram

Q: What about the pH ([3]; dose 10% (w/w), week 0) of the same compound?
A: 10.2

Q: And the pH ([3]; dose 10% (w/w), week 1)?
A: 9.87

Q: What about the pH ([3]; dose 10% (w/w), week 2) of the same compound?
A: 7.09

Q: What about the pH ([3]; dose 10% (w/w), week 3) of the same compound?
A: 7.90

Q: What about the pH ([3]; dose 10% (w/w), week 4) of the same compound?
A: 8.89

Q: What about the pH ([3]; dose 10% (w/w), week 5) of the same compound?
A: 6.83

Q: And the pH ([3]; dose 10% (w/w), week 6)?
A: 8.93

Q: What about the pH ([3]; dose 10% (w/w), week 7) of the same compound?
A: 7.24

Q: And the pH ([3]; dose 10% (w/w), week 8)?
A: 8.63

Q: And the pH ([3]; dose 10% (w/w), week 9)?
A: 8.96

Q: And the pH ([3]; dose 15% (w/w), week 0)?
A: 11.53

Q: What about the pH ([3]; dose 15% (w/w), week 1) of the same compound?
A: 11.35

Q: And the pH ([3]; dose 15% (w/w), week 2)?
A: 6.61

Q: What about the pH ([3]; dose 15% (w/w), week 3) of the same compound?
A: 8.03

Q: And the pH ([3]; dose 15% (w/w), week 4)?
A: 8.54

Q: And the pH ([3]; dose 15% (w/w), week 5)?
A: 7.20

Q: What about the pH ([3]; dose 15% (w/w), week 6) of the same compound?
A: 9.25

Q: What about the pH ([3]; dose 15% (w/w), week 7) of the same compound?
A: 7.21

Q: What about the pH ([3]; dose 15% (w/w), week 8) of the same compound?
A: 9.17

Q: And the pH ([3]; dose 15% (w/w), week 9)?
A: 8.95
